The text below walks through data of ChEMBL document CHEMBL1126532, “Excitatory amino acid receptor atagonists: synthesis and pharmacology of 3-(carboxymethoxy)isoxazoles derived from AMPA” (Bioorg Med Chem Lett, 1993).

Where only a bound is given, the exact number is not on record here.

Assay [1] has as its target Glutamate receptor ionotropic, kainate. Put plainly: Binding affinity by measuring displacement of [3H]KAIN from Ionotropic glutamate receptor kainate in rat cortical slice preparation. On the technique in general: Displacement assays read how much labelled ligand stays bound in the presence of the test substance.
A further assay addresses Glutamate NMDA receptor. Put plainly: Binding affinity by measuring displacement of [3H]CPP from NMDA receptor in rat cortical slice preparation.
In assay [2] the target is Glutamate receptor ionotropic, AMPA (Rattus norvegicus, UniProt P19490+P19491+P19492+P19493). Put plainly: Binding affinity by measuring displacement of [3H]AMPA from Ionotropic glutamate receptor AMPA in rat cortical slice preparation.
The target in assay [3] is Glutamate receptor ionotropic, AMPA (Rattus norvegicus) (UniProt P19491+P19492+P19493+P19490). Put plainly: Binding affinity by measuring displacement of [3H]AMPA from Ionotropic glutamate receptor AMPA in rat cortical slice preparation at 100 uM.

The IC50 is the midpoint of a concentration-inhibition curve. Turning to `Cc1onc(OCC(=O)O)c1C(N)C(=O)O` (configuration not stated), the IC50 (in assay [1]; at Glutamate NMDA receptor; in assay [2]) was above 100 µM throughout.

For `C=C(C)[C@H]1CN[C@H](C(=O)O)[C@H]1CC(=O)O` [KAINIC ACID], the IC50 on Glutamate NMDA receptor was above 100 µM.

On to `O=C(O)COc1noc2c1CC(C(=O)O)NC2` (configuration not stated), for which the IC50 in assay [1] is above 100 µM; at Glutamate NMDA receptor, 16 µM; in assay [2], above 100 µM.

A word on the inhibition: it is the change of the read-out against control, counted positive when it falls. Consider `NC(Cc1c(OCC(=O)O)noc1C(F)(F)F)C(=O)O` (configuration not stated), for which the IC50 (in assay [1]; on Glutamate NMDA receptor; in assay [2]) was above 100 µM throughout. For the same molecule, the inhibition in assay [3] came out at 40%.

For the molecule `Cc1o[nH]c(=O)c1C(N)C(=O)O` (configuration not stated), the results for the IC50 (in assay [1]; on Glutamate NMDA receptor; in assay [2]) were above 100 µM, 4.5 µM and above 100 µM, respectively.

As to `Cc1onc(OCC(=O)O)c1CC(N)C(=O)O` (configuration not stated), the results for the IC50 (in assay [1]; at Glutamate NMDA receptor; in assay [2]) were above 100 µM, above 100 µM and 90 µM, respectively.
